{"source": "patent US20260285850A1", "about": "“SUBSTITUTED OXAZOLIDINONES AND IMIDAZOLINONES AS HERBICIDES” (FMC CORPORATION, priority 2023, published 2026)", "assay_type_in_all_cases": "in vivo", "key": {"[1]": {"test_system": "ducksalad (Heteranthera limosa)", "test": "Test B flooded paddy test, visual plant response rating 0-100", "conditions": "250 g ai/ha, Flood, applied to paddy water, evaluated after 13 days", "in_short": "(§1)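 In this flooded assay, 2-leaf seedlings received compound through the water layer, kept at 3 cm over the soil. Plants were held 13 days in a greenhouse and then visually compared with control pots.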"}, "[2]": {"test_system": "barnyardgrass (Echinochloa crusgalli)", "test": "Test B flooded paddy test, visual plant response rating 0-100", "conditions": "250 g ai/ha, Flood, applied to paddy water, evaluated after 13 days", "in_short": "as §1"}, "[3]": {"test_system": "sedge, umbrella (small-flower umbrella sedge, Cyperus difformis)", "test": "Test B flooded paddy test, visual plant response rating 0-100", "conditions": "250 g ai/ha, Flood, applied to paddy water, evaluated after 13 days", "in_short": "as §1"}, "rice (Oryza sativa)": {"test_system": "rice (Oryza sativa)", "test": "Test B flooded paddy test, visual plant response rating 0-100", "conditions": "250 g ai/ha, Flood, applied to paddy water, evaluated after 13 days", "in_short": "as §1"}, "corn (Zea mays) [4]": {"test_system": "corn (Zea mays)", "test": "Test A postemergence application, visual injury rating 0-100", "in_short": "(§2)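 Compound in a non-phytotoxic, surfactant-containing solvent is applied either as a directed soil spray before seedlings emerge or onto emerged plants 2-10 cm tall; pots hold a loam-sand blend. Plants grow 10 days under greenhouse conditions and are rated by eye against untreated controls (0 no effect, 100 complete control).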"}, "[5]": {"test_system": "barnyardgrass (Echinochloa crus-galli)", "test": "Test A postemergence application, visual injury rating 0-100", "in_short": "as §2"}, "[6]": {"test_system": "ragweed (common ragweed, Ambrosia artemisiifolia)", "test": "Test A postemergence application, visual injury rating 0-100", "in_short": "as §2"}, "kochia (Bassia scoparia) [7]": {"test_system": "kochia (Bassia scoparia)", "test": "Test A postemergence application, visual injury rating 0-100", "in_short": "as §2"}, "[8]": {"test_system": "wheat (Triticum aestivum)", "test": "Test A postemergence application, visual injury rating 0-100", "in_short": "as §2"}, "[9]": {"test_system": "palmer (palmer amaranth, palmer pigweed, Amaranthus palmeri)", "test": "Test A postemergence application, visual injury rating 0-100", "in_short": "as §2"}, "[10]": {"test_system": "oat, wild (wild oat, Avena fatua)", "test": "Test A postemergence application, visual injury rating 0-100", "in_short": "as §2"}, "[11]": {"test_system": "green foxtail (Setaria viridis)", "test": "Test A postemergence application, visual injury rating 0-100", "in_short": "as §2"}, "[12]": {"test_system": "blackgrass (Alopecurus myosuroides)", "test": "Test A postemergence application, visual injury rating 0-100", "in_short": "as §2"}, "[13]": {"test_system": "horseweed (Erigeron canadensis)", "test": "Test A postemergence application, visual injury rating 0-100", "in_short": "as §2"}, "[14]": {"test_system": "ryegrass, Italian (italian ryegrass, Lolium multiflorum)", "test": "Test A postemergence application, visual injury rating 0-100", "in_short": "as §2"}, "soybean (Glycine max) [15]": {"test_system": "soybean (Glycine max)", "test": "Test A postemergence application, visual injury rating 0-100", "in_short": "as §2"}, "corn (Zea mays) [16]": {"test_system": "corn (Zea mays)", "test": "Test A preemergence soil spray, visual injury rating 0-100", "conditions": "10 days", "in_short": "as §2"}, "[17]": {"test_system": "barnyardgrass (Echinochloa crus-galli)", "test": "Test A preemergence soil spray, visual injury rating 0-100", "conditions": "10 days", "in_short": "as §2"}, "[18]": {"test_system": "ragweed (common ragweed, Ambrosia artemisiifolia)", "test": "Test A preemergence soil spray, visual injury rating 0-100", "conditions": "10 days", "in_short": "as §2"}, "kochia (Bassia scoparia) [19]": {"test_system": "kochia (Bassia scoparia)", "test": "Test A preemergence soil spray, visual injury rating 0-100", "conditions": "10 days", "in_short": "as §2"}, "[20]": {"test_system": "wheat (Triticum aestivum)", "test": "Test A preemergence soil spray, visual injury rating 0-100", "conditions": "10 days", "in_short": "as §2"}, "[21]": {"test_system": "palmer (palmer amaranth, palmer pigweed, Amaranthus palmeri)", "test": "Test A preemergence soil spray, visual injury rating 0-100", "conditions": "10 days", "in_short": "as §2"}, "[22]": {"test_system": "oat, wild (wild oat, Avena fatua)", "test": "Test A preemergence soil spray, visual injury rating 0-100", "conditions": "10 days", "in_short": "as §2"}, "[23]": {"test_system": "green foxtail (Setaria viridis)", "test": "Test A preemergence soil spray, visual injury rating 0-100", "conditions": "10 days", "in_short": "as §2"}, "[24]": {"test_system": "blackgrass (Alopecurus myosuroides)", "test": "Test A preemergence soil spray, visual injury rating 0-100", "conditions": "10 days", "in_short": "as §2"}, "[25]": {"test_system": "ryegrass, Italian (italian ryegrass, Lolium multiflorum)", "test": "Test A preemergence soil spray, visual injury rating 0-100", "conditions": "10 days", "in_short": "as §2"}, "soybean (Glycine max) [26]": {"test_system": "soybean (Glycine max)", "test": "Test A preemergence soil spray, visual injury rating 0-100", "conditions": "10 days", "in_short": "as §2"}, "[27]": {"conditions": "62 g ai/ha, postemergence, 10 days, 0 = no effect, 100 = complete control"}, "[28]": {"conditions": "Postemergence, 16 g ai/ha, greenhouse 10 days, 0 no effect, 100 complete control"}, "[29]": {"conditions": "62 g ai/ha, 0 = no effect, 100 = complete control"}}, "data": [{"smiles": "CC1(C(=O)NC2CC=C(C(=O)OCC3CC3)C2)CN(c2cc(F)cc(Cl)c2)C(=O)O1", "note": "(centres unmarked) [Compound 144]", "values": [{"measurement": "Plant response rating, Ducksalad (0 to 100 scale, 0 is no effect and 100 is complete control)", "setting": "[1]", "value": 80}, {"measurement": "Plant response rating, Barnyardgrass (0 to 100 scale, 0 is no effect and 100 is complete control)", "setting": "[2]", "value": 95}, {"measurement": "Plant response rating, Sedge, Umbrella (0 to 100 scale, 0 is no effect and 100 is complete control)", "setting": "[3]", "value": 100}, {"measurement": "Plant response rating, Rice (0 to 100 scale, 0 is no effect and 100 is complete control)", "setting": "rice (Oryza sativa)", "value": 50}, {"measurement": "Corn plant response rating (0-100)", "setting": "corn (Zea mays) [4]; [27]", "value": 100}, {"measurement": "Corn plant response rating (0 to 100 scale)", "setting": "corn (Zea mays) [4]; [28]", "value": 100}, {"measurement": "Barnyardgrass plant response rating (0-100)", "setting": "[5]; [27]", "value": 100}, {"measurement": "Barnyardgrass plant response rating (0 to 100 scale)", "setting": "[5]; [28]", "value": 90}, {"measurement": "Ragweed plant response rating (0-100)", "setting": "[6]; [27]", "value": 50}, {"measurement": "Ragweed plant response rating (0 to 100 scale)", "setting": "[6]; [28]", "value": 20}, {"measurement": "Kochia plant response rating (0-100)", "setting": "kochia (Bassia scoparia) [7]; [27]", "value": 80}, {"measurement": "Kochia plant response rating (0 to 100 scale)", "setting": "kochia (Bassia scoparia) [7]; [28]", "value": 80}, {"measurement": "Wheat plant response rating (0-100)", "setting": "[8]; [27]", "value": 90}, {"measurement": "Wheat plant response rating (0 to 100 scale)", "setting": "[8]; [28]", "value": 60}, {"measurement": "Pigweed, Palmer plant response rating (0-100)", "setting": "[9]; [27]", "value": 90}, {"measurement": "Pigweed, Palmer plant response rating (0 to 100 scale)", "setting": "[9]; [28]", "value": 70}, {"measurement": "Oat, Wild plant response rating (0-100)", "setting": "[10]; [27]", "value": 40}, {"measurement": "Oat, Wild plant response rating (0 to 100 scale)", "setting": "[10]; [28]", "value": 20}, {"measurement": "Foxtail, Green plant response rating (0-100)", "setting": "[11]; [27]", "value": 90}, {"measurement": "Foxtail, Green plant response rating (0 to 100 scale)", "setting": "[11]; [28]", "value": 90}, {"measurement": "Blackgrass plant response rating (0-100)", "setting": "[12]; [27]", "value": 100}, {"measurement": "Blackgrass plant response rating (0 to 100 scale)", "setting": "[12]; [28]", "value": 70}, {"measurement": "Horseweed plant response rating (0-100)", "setting": "[13]; [27]", "value": 80}, {"measurement": "Horseweed plant response rating (0 to 100 scale)", "setting": "[13]; [28]", "value": 50}, {"measurement": "Ryegrass, Italian plant response rating (0-100)", "setting": "[14]; [27]", "value": 90}, {"measurement": "Ryegrass, Italian plant response rating (0 to 100 scale)", "setting": "[14]; [28]", "value": 60}, {"measurement": "Soybean plant response rating (0-100)", "setting": "soybean (Glycine max) [15]; [27]", "value": 80}, {"measurement": "Soybean plant response rating (0 to 100 scale)", "setting": "soybean (Glycine max) [15]; [28]", "value": 80}, {"measurement": "Corn plant response rating", "setting": "corn (Zea mays) [16]; 16 g ai/ha, 0 to 100 scale", "value": 0}, {"measurement": "Corn plant response rating (0-100)", "setting": "corn (Zea mays) [16]; [29]", "value": 50}, {"measurement": "Barnyardgrass plant response rating", "setting": "[17]; 16 g ai/ha, 0 to 100 scale", "value": 0}, {"measurement": "Barnyardgrass plant response rating (0-100)", "setting": "[17]; [29]", "value": 100}, {"measurement": "Ragweed plant response rating", "setting": "[18]; 16 g ai/ha, 0 to 100 scale", "value": 0}, {"measurement": "Ragweed plant response rating (0-100)", "setting": "[18]; [29]", "value": 0}, {"measurement": "Kochia plant response rating", "setting": "kochia (Bassia scoparia) [19]; 16 g ai/ha, 0 to 100 scale", "value": 0}, {"measurement": "Kochia plant response rating (0-100)", "setting": "kochia (Bassia scoparia) [19]; [29]", "value": 40}, {"measurement": "Wheat plant response rating", "setting": "[20]; 16 g ai/ha, 0 to 100 scale", "value": 0}, {"measurement": "Wheat plant response rating (0-100)", "setting": "[20]; [29]", "value": 70}, {"measurement": "Pigweed, Palmer plant response rating", "setting": "[21]; 16 g ai/ha, 0 to 100 scale", "value": 50}, {"measurement": "Pigweed, Palmer plant response rating (0-100)", "setting": "[21]; [29]", "value": 80}, {"measurement": "Oat, Wild plant response rating", "setting": "[22]; 16 g ai/ha, 0 to 100 scale", "value": 0}, {"measurement": "Oat, Wild plant response rating (0-100)", "setting": "[22]; [29]", "value": 20}, {"measurement": "Foxtail, Green plant response rating", "setting": "[23]; 16 g ai/ha, 0 to 100 scale", "value": 0}, {"measurement": "Foxtail, Green plant response rating (0-100)", "setting": "[23]; [29]", "value": 90}, {"measurement": "Blackgrass plant response rating", "setting": "[24]; 16 g ai/ha, 0 to 100 scale", "value": 0}, {"measurement": "Blackgrass plant response rating (0-100)", "setting": "[24]; [29]", "value": 0}, {"measurement": "Ryegrass, Italian plant response rating", "setting": "[25]; 16 g ai/ha, 0 to 100 scale", "value": 10}, {"measurement": "Ryegrass, Italian plant response rating (0-100)", "setting": "[25]; [29]", "value": 60}, {"measurement": "Soybean plant response rating", "setting": "soybean (Glycine max) [26]; 16 g ai/ha, 0 to 100 scale", "value": 0}, {"measurement": "Soybean plant response rating (0-100)", "setting": "soybean (Glycine max) [26]; [29]", "value": 10}]}]}
